According to patent publication EP3875086A1, “DUAL-INHIBITORS OF CELLULAR NECROPTOSIS AND FERROPTOSIS FOR USE IN THE TREATMENT OF ORGAN TRANSPLANT PATIENTS” (Technische Universität Dresden, priority 2020, dated 2021):
Entries after “also recorded” stand apart in the source; their conditions may differ.

Tests used:
NIH3T3 cells [1] = assay: Inhibition of TNF/Birinapant/zVAD (TSZ)-induced necroptosis, flow cytometry (annexinV / 7-AAD); format: cell-based, Murine; settings: TNF + Birinapant + z-VAD-fmk (TSZ), 18 h
Method: (§1) • Figure 1: Overview of chemical structures of different necrostatins. Structural differences between Nec-1f in comparison to known necroptosis inhibitors Nec-1 and Nec-1s. Highlighted are the main residues involved in facilitating protection from necroptosis and/or ferroptosis. • Figure 2: Biotinylation of Nec-1. Simplified scheme of linking the target molecule Nec-1 to a biotin anker. […] (A, B) Inhibition of cell death by Nec-1f in NIH3T3 cells was assessed by flow cytometry. Cells were treated with the ferroptosis inducer RSL-3 (1.13 µM) for 6 h with or without simultaneous substitution of necrostatins. The percentage of cells positive for annexinV and 7-AAD was recorded. (C, D) Viability of NIH3T3 cells after induction of ferroptosis. Cells were treated with 1.13 µM RSL-3 for 6 h and collected for flow cytometry. […] (A, B) Inhibition of necroptotic cell death by Nec-1f in NIH3T3 cells was assessed by flow cytometry. […] The percentage of cells positive for annexinV and 7-AAD was recorded. […] (A, B) After 48h mice were sacrificed and serum creatinine levels and serum urea levels were measured as markers of renal function and intoxication. […]
(§2) Phosphatidylserine exposure to the outer cell membrane of apoptotic cells or at the inner plasma membrane of necrotic cells and incorporation of 7-AAD into necrotic cells were quantified by fluorescence-activated cell sorting (FACS) analysis. […]

NIH3T3 cells [2] = assay: Inhibition of RSL-3-induced ferroptosis, flow cytometry (annexinV / 7-AAD); format: cell-based, Murine; settings: RSL-3 1.13 µM for 6 h, with simultaneous necrostatin
Method: as §1, §2

[3] = Murine kidney ischemia-reperfusion injury model; format: in vivo, C57BL/6 mice; settings: mice, 30 min ischemia
Method: • Figure 1: Overview of chemical structures of different necrostatins. Structural differences between Nec-1f in comparison to known necroptosis inhibitors Nec-1 and Nec-1s. Highlighted are the main residues involved in facilitating protection from necroptosis and/or ferroptosis. • Figure 2: Biotinylation of Nec-1. Simplified scheme of linking the target molecule Nec-1 to a biotin anker. […] (A, B) Inhibition of cell death by Nec-1f in NIH3T3 cells was assessed by flow cytometry. Cells were treated with the ferroptosis inducer RSL-3 (1.13 µM) for 6 h with or without simultaneous substitution of necrostatins. The percentage of cells positive for annexinV and 7-AAD was recorded. (C, D) Viability of NIH3T3 cells after induction of ferroptosis. Cells were treated with 1.13 µM RSL-3 for 6 h and collected for flow cytometry. […] (A, B) Inhibition of necroptotic cell death by Nec-1f in NIH3T3 cells was assessed by flow cytometry. Cells were treated with the TNF, Birinapant and z-VAD-fmk (TSZ) to induce necroptosis. After 18 h necroptosis induction with or without simultaneous substitution of necrostatins the cells were harvested and stained for flow cytometry. The percentage of cells positive for annexinV and 7-AAD was recorded. (C, D) Viability of NIH3T3 cells 18h after induction of necroptosis via TSZ treatment. […] Animals were subjected to 30 min of ischemia after i.p. injection of 0.6 mg Nec-1f per kg bodyweight or the respective vehicle control in PBS. (A, B) After 48h mice were sacrificed and serum creatinine levels and serum urea levels were measured as markers of renal function and intoxication. Error bars represent standard deviation. • Figure 6: Synthesis of 5-[(7-Chloro-1H-indol-3-yl)methyl]-3-methyl-2-thioxo-imidazolidin-4-one (1-3; Nec-1f) according to example 2. • Figure 7: Synthesis of 5-[(3aS,4R,6aR)-2-Oxo-1,3,3a,4,6,6a-hexahydrothieno[3,4-d]imidazol-4-yl]-N-[[1-[2-[2-[2-[[3-[(1-methyl-5-oxo-2-thioxo-imidazolidin-4-yl)methyl]-1H-indol-7-yl]oxy]ethoxy]ethoxy]ethyl]triazol-4-yl]methyl]pentanamide (2-8; biotinylated Nec-1) according to example 3. […]

[4] = 0.6 mg Nec-1f per kg bodyweight i.p. 15 min before ischemia, 48 h after reperfusion

CN1C(=O)C(Cc2c[nH]c3c(Cl)cccc23)NC1=S (centres unmarked) [Nec-1f, 5-[(7-Chloro-1H-indol-3-yl)methyl]-3-methyl-2-thioxo-imidazolidin-4-one]
assays used to detect necroptosis (cell death / viability, annexinV and 7-AAD) (NIH3T3 cells [1]): protects cells from undergoing necroptosis; also recorded: reversed
assays used to detect ferroptosis (cell death / viability, annexinV and 7-AAD) (NIH3T3 cells [2]): protects cells from undergoing ferroptosis; also recorded: reversed
protection in animal model of renal ischemia-reperfusion injury ([3]; 0.6 mg Nec-1f per kg bodyweight i.p.): protective
serum creatinine levels (marker of renal function) [3, 4]: reversed
serum urea levels (intoxication marker) [3, 4]: reversed
